The kinase profiling compilation of Christmann-Franck et al. (2016)

What was measured:
Assay in all cases: radiometric filter-binding kinase assay
GSK3B (human) = GSK3B (human) (UniProt P49841)
MAPKAPK5 (human) = MAPKAPK5 (human) (UniProt Q8IW41)
STK3 (human) = STK3 (human) (UniProt Q13188)
RPS6KA3 KD1 KD2 (human) = RPS6KA3 KD1 KD2 (human) (UniProt P51812)
MAPK10 (human) = MAPK10 (human) (UniProt P53779)
TTK (human) = TTK (human) (UniProt P33981)
AURKA (human) = AURKA (human) (UniProt O14965)
MINK1 (human) = MINK1 (human) (UniProt Q8N4C8)
MAP2K2 (human) = MAP2K2 (human) (UniProt P36507)
EEF2K (human) = EEF2K (human) (UniProt O00418)
IRAK4 (human) = IRAK4 (human) (UniProt Q9NWZ3)
PIM2 (human) = PIM2 (human) (UniProt Q9P1W9)
CLK2 (human) = CLK2 (human) (UniProt P49760)
MAP2K6 (human) = MAP2K6 (human) (UniProt P52564)
TAOK1 (human) = TAOK1 (human) (UniProt Q7L7X3)
IKBKE (human) = IKBKE (human) (UniProt Q14164)
EPHB4 (human) = EPHB4 (human) (UniProt P54760)
ROCK2 (rat) = settings: accession and sequence are those of the human protein
RPS6KA5 KD1 KD2 (human) = RPS6KA5 KD1 KD2 (human) (UniProt O75582)
MAP3K5 (human) = MAP3K5 (human) (UniProt Q99683)
RIPK2 (human) = RIPK2 (human) (UniProt O43353)
[1] = tested on: AKT2 (human), P31751 [S474D]
MST4 (human) = MST4 (human) (UniProt Q9P289)
MAPK12 (human) = MAPK12 (human) (UniProt P53778)
DAPK1 (human) = DAPK1 (human) (UniProt P53355)
SRC (human) = SRC (human) (UniProt P12931)
CDK2 CCNA2 (human) = CDK2 CCNA2 (human) (UniProt P20248+P24941)
MKNK2 (human) = MKNK2 (human) (UniProt Q9HBH9)
Sequence of MKNK2 (human) (Q9HBH9 whole entry, looked up): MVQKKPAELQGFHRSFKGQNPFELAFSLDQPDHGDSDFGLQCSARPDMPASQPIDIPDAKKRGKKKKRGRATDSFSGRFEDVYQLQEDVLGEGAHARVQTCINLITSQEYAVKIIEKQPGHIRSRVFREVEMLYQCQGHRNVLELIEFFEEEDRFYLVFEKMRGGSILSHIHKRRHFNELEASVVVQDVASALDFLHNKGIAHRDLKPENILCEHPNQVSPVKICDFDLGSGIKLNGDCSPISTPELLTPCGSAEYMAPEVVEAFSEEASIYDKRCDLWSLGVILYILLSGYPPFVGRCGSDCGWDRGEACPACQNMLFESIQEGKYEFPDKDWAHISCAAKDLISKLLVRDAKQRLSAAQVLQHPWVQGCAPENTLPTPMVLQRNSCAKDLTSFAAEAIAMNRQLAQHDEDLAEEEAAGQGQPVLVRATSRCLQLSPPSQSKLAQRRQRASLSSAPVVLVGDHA

Sequence of RPS6KA5 KD1 KD2 (human) (O75582 whole entry, looked up): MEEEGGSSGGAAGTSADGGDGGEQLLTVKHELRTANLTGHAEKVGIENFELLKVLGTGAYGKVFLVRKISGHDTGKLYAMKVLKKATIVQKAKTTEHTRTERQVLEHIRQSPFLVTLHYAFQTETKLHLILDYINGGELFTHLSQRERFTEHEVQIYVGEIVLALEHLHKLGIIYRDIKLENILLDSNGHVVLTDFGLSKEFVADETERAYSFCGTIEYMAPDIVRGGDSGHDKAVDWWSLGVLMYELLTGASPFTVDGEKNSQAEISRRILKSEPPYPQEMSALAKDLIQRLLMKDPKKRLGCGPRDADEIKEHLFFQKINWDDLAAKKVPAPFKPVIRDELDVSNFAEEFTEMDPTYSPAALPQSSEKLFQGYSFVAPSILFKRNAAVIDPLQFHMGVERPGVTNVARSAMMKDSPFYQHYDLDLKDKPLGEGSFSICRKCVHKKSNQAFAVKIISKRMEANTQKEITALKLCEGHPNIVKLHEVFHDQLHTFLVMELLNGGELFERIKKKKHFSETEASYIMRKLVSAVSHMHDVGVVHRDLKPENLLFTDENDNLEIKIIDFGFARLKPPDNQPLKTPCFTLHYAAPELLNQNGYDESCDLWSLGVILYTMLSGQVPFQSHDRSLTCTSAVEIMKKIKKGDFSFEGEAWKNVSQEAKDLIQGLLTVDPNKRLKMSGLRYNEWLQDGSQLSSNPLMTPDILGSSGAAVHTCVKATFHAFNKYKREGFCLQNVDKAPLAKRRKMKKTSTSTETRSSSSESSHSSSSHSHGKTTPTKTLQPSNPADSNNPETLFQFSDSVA
Sequence of MST4 (human) (Q9P289 whole entry, looked up): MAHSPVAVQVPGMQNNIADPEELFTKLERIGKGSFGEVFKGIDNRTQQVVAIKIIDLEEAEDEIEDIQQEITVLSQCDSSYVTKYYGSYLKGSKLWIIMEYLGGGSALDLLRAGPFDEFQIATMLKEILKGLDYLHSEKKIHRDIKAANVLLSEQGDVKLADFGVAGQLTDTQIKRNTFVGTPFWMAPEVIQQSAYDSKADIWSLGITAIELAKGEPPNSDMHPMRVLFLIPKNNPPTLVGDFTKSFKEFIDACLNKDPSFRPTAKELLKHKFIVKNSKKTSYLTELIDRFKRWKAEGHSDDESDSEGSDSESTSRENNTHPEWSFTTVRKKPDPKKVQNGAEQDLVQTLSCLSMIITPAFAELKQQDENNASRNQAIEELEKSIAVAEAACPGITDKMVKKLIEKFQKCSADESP
Sequence of PIM2 (human) (Q9P1W9 whole entry, looked up): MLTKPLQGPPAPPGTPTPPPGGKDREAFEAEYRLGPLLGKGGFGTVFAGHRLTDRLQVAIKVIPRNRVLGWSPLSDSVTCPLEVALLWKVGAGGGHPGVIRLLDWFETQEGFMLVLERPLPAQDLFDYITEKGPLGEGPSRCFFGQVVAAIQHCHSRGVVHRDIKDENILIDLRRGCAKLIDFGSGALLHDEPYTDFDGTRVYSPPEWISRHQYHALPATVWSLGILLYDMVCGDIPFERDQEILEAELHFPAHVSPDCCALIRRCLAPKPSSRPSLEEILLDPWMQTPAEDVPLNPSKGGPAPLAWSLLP
Sequence of RIPK2 (human) (O43353 whole entry, looked up): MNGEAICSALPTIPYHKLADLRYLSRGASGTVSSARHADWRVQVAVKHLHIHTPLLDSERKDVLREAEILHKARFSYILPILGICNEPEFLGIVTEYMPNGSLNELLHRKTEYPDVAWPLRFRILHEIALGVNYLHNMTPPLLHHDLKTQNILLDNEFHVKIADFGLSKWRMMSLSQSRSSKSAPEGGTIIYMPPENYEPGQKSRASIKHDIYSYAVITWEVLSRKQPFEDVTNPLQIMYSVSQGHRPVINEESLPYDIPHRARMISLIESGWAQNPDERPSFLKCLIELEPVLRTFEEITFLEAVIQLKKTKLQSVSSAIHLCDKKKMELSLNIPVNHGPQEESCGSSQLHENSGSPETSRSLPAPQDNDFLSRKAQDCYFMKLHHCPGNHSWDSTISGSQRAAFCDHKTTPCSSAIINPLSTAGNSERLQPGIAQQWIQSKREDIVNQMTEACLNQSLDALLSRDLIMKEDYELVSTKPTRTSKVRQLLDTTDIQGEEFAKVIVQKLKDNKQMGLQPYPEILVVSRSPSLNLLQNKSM
Sequence of TAOK1 (human) (Q7L7X3 whole entry, looked up): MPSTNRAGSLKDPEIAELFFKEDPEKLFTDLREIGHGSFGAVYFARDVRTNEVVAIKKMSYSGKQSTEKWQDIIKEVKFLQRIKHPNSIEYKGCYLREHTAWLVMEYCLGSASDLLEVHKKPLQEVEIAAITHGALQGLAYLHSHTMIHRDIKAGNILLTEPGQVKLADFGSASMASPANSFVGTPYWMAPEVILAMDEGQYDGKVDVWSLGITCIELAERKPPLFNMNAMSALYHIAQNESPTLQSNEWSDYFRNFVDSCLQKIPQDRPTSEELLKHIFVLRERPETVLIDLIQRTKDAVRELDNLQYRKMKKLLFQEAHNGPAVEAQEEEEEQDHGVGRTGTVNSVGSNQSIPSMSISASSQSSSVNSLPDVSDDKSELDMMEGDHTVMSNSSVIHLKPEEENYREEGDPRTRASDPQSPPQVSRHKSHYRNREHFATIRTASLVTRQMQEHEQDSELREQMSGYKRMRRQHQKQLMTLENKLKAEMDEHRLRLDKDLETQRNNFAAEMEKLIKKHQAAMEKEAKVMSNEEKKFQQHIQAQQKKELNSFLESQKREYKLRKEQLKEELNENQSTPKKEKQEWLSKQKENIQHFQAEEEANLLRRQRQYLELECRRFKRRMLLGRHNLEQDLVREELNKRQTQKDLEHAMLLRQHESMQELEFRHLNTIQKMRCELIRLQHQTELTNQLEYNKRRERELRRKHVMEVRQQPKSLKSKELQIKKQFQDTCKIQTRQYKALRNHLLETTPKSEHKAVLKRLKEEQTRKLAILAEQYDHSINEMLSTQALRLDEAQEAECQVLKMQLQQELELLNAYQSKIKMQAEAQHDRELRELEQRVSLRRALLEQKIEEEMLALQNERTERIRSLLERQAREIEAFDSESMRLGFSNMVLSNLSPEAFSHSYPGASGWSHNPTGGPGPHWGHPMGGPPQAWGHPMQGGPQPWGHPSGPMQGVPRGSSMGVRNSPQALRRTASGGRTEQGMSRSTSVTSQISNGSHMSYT
Sequence of AURKA (human) (O14965 whole entry, looked up): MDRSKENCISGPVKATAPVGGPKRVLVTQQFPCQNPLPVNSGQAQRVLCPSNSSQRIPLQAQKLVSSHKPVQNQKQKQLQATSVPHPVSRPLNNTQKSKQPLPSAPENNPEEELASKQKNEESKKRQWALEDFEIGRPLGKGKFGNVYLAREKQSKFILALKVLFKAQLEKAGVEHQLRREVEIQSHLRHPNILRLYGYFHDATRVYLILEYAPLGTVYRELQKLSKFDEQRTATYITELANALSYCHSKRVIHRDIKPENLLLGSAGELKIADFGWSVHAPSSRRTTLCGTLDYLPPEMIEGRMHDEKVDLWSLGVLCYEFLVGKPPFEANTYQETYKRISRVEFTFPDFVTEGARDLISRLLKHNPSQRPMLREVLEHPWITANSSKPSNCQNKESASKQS
Sequence of GSK3B (human) (P49841 whole entry, looked up): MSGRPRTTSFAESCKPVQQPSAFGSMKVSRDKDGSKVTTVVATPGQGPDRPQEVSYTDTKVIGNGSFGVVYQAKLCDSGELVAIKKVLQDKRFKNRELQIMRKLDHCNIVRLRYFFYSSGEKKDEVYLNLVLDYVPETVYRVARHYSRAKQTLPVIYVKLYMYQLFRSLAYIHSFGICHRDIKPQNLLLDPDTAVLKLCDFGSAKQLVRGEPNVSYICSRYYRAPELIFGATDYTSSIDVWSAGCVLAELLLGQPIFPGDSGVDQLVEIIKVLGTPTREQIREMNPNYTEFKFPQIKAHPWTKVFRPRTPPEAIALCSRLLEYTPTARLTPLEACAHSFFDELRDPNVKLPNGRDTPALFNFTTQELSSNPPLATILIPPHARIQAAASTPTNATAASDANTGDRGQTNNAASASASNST
Sequence of AKT2 (human), P31751 [S474D] (P31751 whole entry S474D, looked up): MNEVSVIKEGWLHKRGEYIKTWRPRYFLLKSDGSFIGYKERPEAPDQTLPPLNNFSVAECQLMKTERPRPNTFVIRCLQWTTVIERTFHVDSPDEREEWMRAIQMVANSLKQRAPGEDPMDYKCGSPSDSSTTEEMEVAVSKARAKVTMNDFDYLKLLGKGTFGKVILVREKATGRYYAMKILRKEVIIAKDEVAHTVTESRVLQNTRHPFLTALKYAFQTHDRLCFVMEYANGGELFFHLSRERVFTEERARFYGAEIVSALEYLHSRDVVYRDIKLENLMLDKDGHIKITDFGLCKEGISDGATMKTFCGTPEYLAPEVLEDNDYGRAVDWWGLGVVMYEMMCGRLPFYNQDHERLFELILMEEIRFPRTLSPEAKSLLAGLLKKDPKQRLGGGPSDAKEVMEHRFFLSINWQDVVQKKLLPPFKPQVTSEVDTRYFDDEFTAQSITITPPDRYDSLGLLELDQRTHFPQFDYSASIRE

- residual activity (GSK3B (human); compound 0.1 µM): 102%
- residual activity (GSK3B (human); compound 1.0 µM): 104%
- residual activity (GSK3B (human); compound 10.0 µM): 101%
- residual activity (MAPKAPK5 (human); compound 0.1 µM): 105%
- residual activity (MAPKAPK5 (human); compound 1.0 µM): 97.4%
- residual activity (MAPKAPK5 (human); compound 10.0 µM): 92.2%
- residual activity (STK3 (human); compound 0.1 µM): 111%
- residual activity (STK3 (human); compound 1.0 µM): 124%
- residual activity (STK3 (human); compound 10.0 µM): 91.5%
- residual activity (RPS6KA3 KD1 KD2 (human); compound 0.1 µM): 94.8%
- residual activity (RPS6KA3 KD1 KD2 (human); compound 1.0 µM): 93.8%
- residual activity (RPS6KA3 KD1 KD2 (human); compound 10.0 µM): 76.3%
- residual activity (MAPK10 (human); compound 0.1 µM): 116%
- residual activity (MAPK10 (human); compound 1.0 µM): 91.8%
- residual activity (MAPK10 (human); compound 10.0 µM): 31.8%
- residual activity (TTK (human); compound 0.1 µM): 91.2%
- residual activity (TTK (human); compound 1.0 µM): 98.1%
- residual activity (TTK (human); compound 10.0 µM): 66.1%
- residual activity (AURKA (human); compound 0.1 µM): 120%
- residual activity (AURKA (human); compound 1.0 µM): 121%
- residual activity (AURKA (human); compound 10.0 µM): 102%
- residual activity (MINK1 (human); compound 0.1 µM): 75.7%
- residual activity (MINK1 (human); compound 1.0 µM): 11.4%
- residual activity (MINK1 (human); compound 10.0 µM): 4.56%
- residual activity (MAP2K2 (human); compound 0.1 µM): 131%
- residual activity (MAP2K2 (human); compound 1.0 µM): 116%
- residual activity (MAP2K2 (human); compound 10.0 µM): 96.8%
- residual activity (EEF2K (human); compound 0.1 µM): 110%
- residual activity (EEF2K (human); compound 1.0 µM): 102%
- residual activity (EEF2K (human); compound 10.0 µM): 100%
- residual activity (IRAK4 (human); compound 0.1 µM): 98.6%
- residual activity (IRAK4 (human); compound 1.0 µM): 102%
- residual activity (PIM2 (human); compound 0.1 µM): 106%
- residual activity (PIM2 (human); compound 1.0 µM): 95%
- residual activity (PIM2 (human); compound 10.0 µM): 102%
- residual activity (CLK2 (human); compound 0.1 µM): 115%
- residual activity (CLK2 (human); compound 1.0 µM): 104%
- residual activity (CLK2 (human); compound 10.0 µM): 75.8%
- residual activity (MAP2K6 (human); compound 0.1 µM): 118%
- residual activity (MAP2K6 (human); compound 1.0 µM): 158%
- residual activity (MAP2K6 (human); compound 10.0 µM): 133%
- residual activity (TAOK1 (human); compound 0.1 µM): 98.9%
- residual activity (TAOK1 (human); compound 1.0 µM): 67.3%
- residual activity (TAOK1 (human); compound 10.0 µM): 26.9%
- residual activity (IKBKE (human); compound 0.1 µM): 106%
- residual activity (IKBKE (human); compound 1.0 µM): 96.6%
- residual activity (IKBKE (human); compound 10.0 µM): 80.1%
- residual activity (EPHB4 (human); compound 0.1 µM): 97.3%
- residual activity (EPHB4 (human); compound 1.0 µM): 92.6%
- residual activity (EPHB4 (human); compound 10.0 µM): 42.7%
- residual activity (ROCK2 (rat); compound 0.1 µM): 91.7%
- residual activity (ROCK2 (rat); compound 1.0 µM): 71.2%
- residual activity (ROCK2 (rat); compound 10.0 µM): 25.5%
- residual activity (RPS6KA5 KD1 KD2 (human); compound 0.1 µM): 81.2%
- residual activity (RPS6KA5 KD1 KD2 (human); compound 1.0 µM): 45.8%
- residual activity (RPS6KA5 KD1 KD2 (human); compound 10.0 µM): 21.4%
- residual activity (MAP3K5 (human); compound 0.1 µM): 111%
- residual activity (MAP3K5 (human); compound 1.0 µM): 105%
- residual activity (MAP3K5 (human); compound 10.0 µM): 76.5%
- residual activity (RIPK2 (human); compound 0.1 µM): 103%
- residual activity (RIPK2 (human); compound 1.0 µM): 78.9%
- residual activity (RIPK2 (human); compound 10.0 µM): 13.5%
- residual activity ([1]; compound 0.1 µM): 105%
- residual activity ([1]; compound 1.0 µM): 114%
- residual activity ([1]; compound 10.0 µM): 49.3%
- residual activity (MST4 (human); compound 0.1 µM): 95%
- residual activity (MST4 (human); compound 1.0 µM): 78%
- residual activity (MST4 (human); compound 10.0 µM): 32.1%
- residual activity (MAPK12 (human); compound 1.0 µM): 37.8%
- residual activity (MAPK12 (human); compound 10.0 µM): 10.8%
- residual activity (DAPK1 (human); compound 1.0 µM): 80.9%
- residual activity (DAPK1 (human); compound 10.0 µM): 84.1%
- residual activity (SRC (human); compound 0.1 µM): 66.5%
- residual activity (SRC (human); compound 1.0 µM): 9.72%
- residual activity (SRC (human); compound 10.0 µM): 2.65%
- residual activity (CDK2 CCNA2 (human); compound 0.1 µM): 110%
- residual activity (CDK2 CCNA2 (human); compound 1.0 µM): 112%
- residual activity (CDK2 CCNA2 (human); compound 10.0 µM): 99.9%
- residual activity (MKNK2 (human); compound 0.1 µM): 109%
- residual activity (MKNK2 (human); compound 1.0 µM): 112%
- residual activity (MKNK2 (human); compound 10.0 µM): 82.8%
Structure (SMILES): CCN1CCN(Cc2ccc(NC(=O)c3ccc(C)c(Oc4ccnc5[nH]ccc45)c3)cc2C(F)(F)F)CC1
